Measured values reported in patent US9315498B2, “Arlethynyl derivatives” (Hoffmann-La Roche Inc., priority 2010, dated 2016).

Target: human mGlu5a receptor (Homo sapiens (Human), UniProt P41594)
Assay: Intracellular Ca2+ mobilization assay (mGlu5 PAM)
Type: cell-based
Details: for EC50: HEK-293 cells stably transfected with human mGlu5a, L-glutamate added at EC20 after pre-incubation with test compound, read-out: EC50 (nM) mGlu5PAM; for Emax: maximal response in % of the maximal stimulatory effect obtained with saturating concentrations of L-glutamate, read-out: Eff. (%)
Procedure, shortened: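 HEK-293 cells stably expressing human mGlu5a at low level were loaded with Fluo-4AM and preincubated 10–30 min at 37 °C with 11-point half-log compound dilutions. L-glutamate was then added at its daily-determined EC20 (typically around 80 μM). Peak fluorescence minus basal, normalized to maximal glutamate effect, was fitted to give EC50, Hill slope and maximal response.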

human mGlu5a receptor, sequence (P41594 other isoform, or with tags, fused parts or gaps): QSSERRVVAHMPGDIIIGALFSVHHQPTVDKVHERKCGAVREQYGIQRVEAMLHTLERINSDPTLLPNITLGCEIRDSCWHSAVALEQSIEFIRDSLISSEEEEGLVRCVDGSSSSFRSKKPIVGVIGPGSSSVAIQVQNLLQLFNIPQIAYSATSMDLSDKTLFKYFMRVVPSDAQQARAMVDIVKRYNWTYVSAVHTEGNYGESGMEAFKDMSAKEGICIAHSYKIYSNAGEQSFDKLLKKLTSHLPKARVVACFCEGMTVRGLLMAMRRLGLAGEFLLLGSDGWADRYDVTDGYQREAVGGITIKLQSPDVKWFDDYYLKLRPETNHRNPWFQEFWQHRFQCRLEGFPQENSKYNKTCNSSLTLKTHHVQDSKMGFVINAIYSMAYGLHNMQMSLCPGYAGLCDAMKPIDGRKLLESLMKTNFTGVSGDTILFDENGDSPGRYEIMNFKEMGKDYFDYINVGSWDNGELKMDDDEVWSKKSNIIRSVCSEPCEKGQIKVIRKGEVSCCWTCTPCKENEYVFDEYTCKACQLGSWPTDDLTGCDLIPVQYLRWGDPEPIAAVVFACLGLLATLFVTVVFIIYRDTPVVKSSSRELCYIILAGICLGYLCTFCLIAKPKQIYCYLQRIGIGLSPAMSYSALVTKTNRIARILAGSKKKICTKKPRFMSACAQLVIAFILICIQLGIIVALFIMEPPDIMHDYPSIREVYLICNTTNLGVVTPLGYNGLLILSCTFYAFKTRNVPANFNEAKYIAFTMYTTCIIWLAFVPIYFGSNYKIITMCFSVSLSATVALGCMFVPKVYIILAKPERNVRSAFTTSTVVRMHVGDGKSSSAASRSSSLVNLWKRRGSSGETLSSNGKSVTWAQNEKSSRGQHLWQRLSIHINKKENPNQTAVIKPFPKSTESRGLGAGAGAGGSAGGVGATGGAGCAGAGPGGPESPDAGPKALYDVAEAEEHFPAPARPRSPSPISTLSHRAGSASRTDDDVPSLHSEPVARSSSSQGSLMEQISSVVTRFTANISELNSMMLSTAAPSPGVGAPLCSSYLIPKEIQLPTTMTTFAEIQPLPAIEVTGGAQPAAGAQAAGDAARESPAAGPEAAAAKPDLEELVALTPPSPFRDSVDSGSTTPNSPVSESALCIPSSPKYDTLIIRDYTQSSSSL

| SMILES | EC50 [nM] | Emax [%] |
| --- | --- | --- |
| CC1(C)CCN(c2ncc(C#Cc3cccc(F)c3)cn2)C(=O)C1 [Example 135, 1-[5-(3-Fluoro-phenylethynyl)-pyrimidin-2-yl]-4,4-dimethyl-piperidin-2-one] | 35 | 47 |
| CC1(C)CCN(c2ncc(C#Cc3cc(F)ccc3F)cn2)C(=O)C1 [Example 136, 1-[5-(2,5-Difluoro-phenylethynyl)-pyrimidin-2-yl]-4,4-dimethyl-piperidin-2-one] | 31 | 49 |
| CN1C(=O)N(c2ncc(C#Cc3ccccc3)cn2)CCC1(C)C [Example 137, 3,4,4-Trimethyl-5′-phenylethynyl-3,4,5,6-tetrahydro-[1,2′]bipyrimidinyl-2-one] | 66 | 74 |
| CN1C(=O)N(c2ncc(C#Cc3cccc(F)c3)cn2)CCC1(C)C [Example 138, 5′-(3-Fluoro-phenylethynyl)-3,4,4-trimethyl-3,4,5,6-tetrahydro-[1,2′]bipyrimidinyl-2-one] | 60 | 67 |
| CN1C(=O)N(c2ncc(C#Cc3cc(F)ccc3F)cn2)CCC1(C)C [Example 139, 5′-(2,5-Difluoro-phenylethynyl)-3,4,4-trimethyl-3,4,5,6-tetrahydro-[1,2′]bipyrimidinyl-2-one] | 57 | 54 |
| CC(C)N1C(=O)N(c2ncc(C#Cc3ccccc3)cn2)CC1(C)C [Example 140, 3-Isopropyl-4,4-dimethyl-1-(5-phenylethynyl-pyrimidin-2-yl)-imidazolidin-2-one] | 28 | 58 |
| CC(C)N1C(=O)N(c2ncc(C#Cc3cccc(F)c3)cn2)CC1(C)C [Example 141, 1-[5-(3-Fluoro-phenylethynyl)-pyrimidin-2-yl]-3-isopropyl-4,4-dimethyl-imidazolidin-2-one] | 28 | 39 |
| CC(C)N1C(=O)N(c2ncc(C#Cc3ccc(F)cc3)cn2)CC1(C)C [Example 142, 1-[5-(4-Fluoro-phenylethynyl)-pyrimidin-2-yl]-3-isopropyl-4,4-dimethyl-imidazolidin-2-one] | 78 | 74 |
| CCN1C(=O)N(c2ncc(C#Cc3ccc(F)cc3)cn2)CC1(C)C [Example 143, 1-[5-(4-Fluoro-phenylethynyl)-pyrimidin-2-yl]-3-ethyl-4,4-dimethyl-imidazolidin-2-one] | 47 | 68 |
| CCN1C(=O)N(c2ncc(C#Cc3cccc(F)c3)cn2)CC1(C)C [Example 144, 1-[5-(3-Fluoro-phenylethynyl)-pyrimidin-2-yl]-3-ethyl-4,4-dimethyl-imidazolidin-2-one] | 31 | 58 |
| CN1C(=O)N(c2ncc(C#Cc3ccccc3)cn2)CC12CC2 [Example 147, 4-Methyl-6-(5-phenylethynyl-pyrimidin-2-yl)-4,6-diaza-spiro[2.4]heptan-5-one] | 25 | 36 |
| CC1(C)CC(=O)N(c2ccc(C#Cc3ccccc3)nn2)C1 [Example 150, 4,4-Dimethyl-1-(6-(phenylethynyl)pyridazin-3-yl)pyrrolidin-2-one] | 21 | 113 |
| CC1(C)CCN(c2ccc(C#Cc3ccccc3)nn2)C(=O)C1 [Example 151, 4,4-Dimethyl-1-(6-(phenylethynyl)pyridazin-3-yl)piperidin-2-one] | 19 | 130 |
| CC1(C)CN(c2ccc(C#Cc3ccccc3)nn2)C(=O)O1 [Example 152, 5,5-Dimethyl-3-(6-(phenylethynyl)pyridazin-3-yl)oxazolidin-2-one] | 15 | 112 |
| CC1(C)CCN(c2ccc(C#Cc3ccccc3)nn2)C(=O)O1 [Example 153, 6,6-Dimethyl-3-(6-(phenylethynyl)pyridazin-3-yl)-1,3-oxazinan-2-one] | 14 | 86 |
| Cc1cccc(C#Cc2ccc(N3CC(C)(C)N(C)C3=O)nn2)c1 [Example 154, 3,4,4-Trimethyl-1-(6-(m-tolylethynyl)pyridazin-3-yl)imidazolidin-2-one] | 61 | 108 |

| SMILES | EC50 [nM] | Emax [%] |
| --- | --- | --- |
| CN1C(=O)N(c2ccc(C#Cc3cccc(Cl)c3)nn2)CC1(C)C [Example 155, 1-(6-((3-Chlorophenyl)ethynyl)pyridazin-3-yl)-3,4,4-trimethylimidazolidin-2-one] | 73 | 95 |
| CN1C(=O)N(c2cnc(C#Cc3ccccc3)cn2)CC1(C)C [Example 156, 3,4,4-Trimethyl-1-(5-(phenylethynyl)pyrazin-2-yl)imidazolidin-2-one] | 24 | 58 |
| CN1C(=O)N(c2cnc(C#Cc3cccnc3)cn2)CC1(C)C [Example 157, 3,4,4-Trimethyl-1-(5-(pyridin-3-ylethynyl)pyrazin-2-yl)imidazolidin-2-one] | 206 | 34 |
| CN1C(=O)N(c2cnc(C#Cc3cccc(F)c3)cn2)CC1(C)C [Example 158, 1-(5-((3-Fluorophenyl)ethynyl)pyrazin-2-yl)-3,4,4-trimethylimidazolidin-2-one] | 46 | 36 |
| CN1C(=O)N(c2cnc(C#Cc3ccc(F)cc3)cn2)CC1(C)C [Example 159, 1-(5-((4-Fluorophenyl)ethynyl)pyrazin-2-yl)-3,4,4-trimethylimidazolidin-2-one] | 49 | 49 |
| CC1(C)CC(=O)N(c2cnc(C#Cc3cccc(F)c3)cn2)C1 [Example 160] | 29 | 39 |
| CC1(C)CCN(c2cnc(C#Cc3cccc(F)c3)cn2)C(=O)C1 [Example 161, 1-(5-((3-Fluorophenyl)ethynyl)pyrazin-2-yl)-4,4-dimethylpiperidin-2-one] | 29 | 68 |
| CC1(C)CCN(c2cnc(C#Cc3cccnc3)cn2)C(=O)C1 [Example 162, 4,4-Dimethyl-1-(5-(pyridin-3-ylethynyl)pyrazin-2-yl)piperidin-2-one] | 681 | 76 |
| CC1(C)CCN(c2cnc(C#Cc3ccccc3)cn2)C(=O)C1 [Example 163, 4,4-Dimethyl-1-(5-(phenylethynyl)pyrazin-2-yl)piperidin-2-one] | 69 | 74 |
| CC1(C)CCN(c2cnc(C#Cc3ccccc3)cn2)C(=O)N1 [Example 164, 4,4-Dimethyl-1-(5-(phenylethynyl)pyrazin-2-yl)tetrahydropyrimidin-2(1H)-one] | 329 | 89 |
| CN1C(=O)N(c2cnc(C#Cc3ccccc3)cn2)CCC1(C)C [Example 165, 3,4,4-Trimethyl-1-(5-(phenylethynyl)pyrazin-2-yl)tetrahydropyrimidin-2(1H)-one] | 36 | 55 |
| CC1(C)CCN(c2cnc(C#Cc3cccc(F)c3)cn2)C(=O)N1 [Example 166, 1-(5-((3-Fluorophenyl)ethynyl)pyrazin-2-yl)-4,4-dimethyltetrahydropyrimidin-2(1H)-one] | 140 | 56 |
| CN1C(=O)N(c2cnc(C#Cc3cccc(F)c3)cn2)CCC1(C)C [Example 167, 1-(5-((3-Fluorophenyl)ethynyl)pyrazin-2-yl)-3,4,4-trimethyltetrahydropyrimidin-2(1H)-one] | 26 | 54 |
| CC1(C)CCN(c2cnc(C#Cc3ccccc3)cn2)C(=O)O1 [Example 168, 6,6-Dimethyl-3-(5-(phenylethynyl)pyrazin-2-yl)-1,3-oxazinan-2-one] | 15 | 41 |
| CC1(C)CN(c2ccc(C#Cc3ccccc3)cn2)C(=O)CO1 [Example 172, 6,6-Dimethyl-4-(5-phenylethynyl-pyridin-2-yl)-morpholin-3-one] | 29 | 82 |
| O=C1CS(=O)(=O)CCN1c1ccc(C#Cc2ccccc2)cn1 [Example 173, 1,1-Dioxo-4-(5-phenylethynyl-pyridin-2-yl)-thiomorpholin-3-one] | 29 | 82 |
